# Test results taken from publication PMC8305076, “Comprehensive Evaluation of Biological Effects of Pentathiepins on Various Human Cancer Cell Lines and Insights into Their Mode of Action” (International Journal of Molecular Sciences, 2021).
# Like-named read-outs stand apart in the source and are kept apart here.
# Experiments:
# [1] = test system: panel of 14 human cancer cell lines; assay: crystal violet proliferation assay, whole panel; assay type: cell-based; set-up: key to Antiproliferative effect: no impact (0); weak impact (+); strong impact (++); conditions: for GI50: mean over the cell line panel, normoxia, read-out: GI50 CV, mean per compound; for Antiproliferative effect: summary grade
# Method: Distinct MTT cell viability and crystal violet cell proliferation assays were performed to assess the cytotoxicity of the compounds 1–6 on 14 human cancer cell lines. In the viability assay, cells with intact mitochondria and thus active dehydrogenases are competent to convert MTT to the corresponding insoluble formazan. The formazan can be photometrically detected after solubilization and allows for indirect conclusions about the viability of the cells as an IC50 value. In the crystal violet assay, cells are stained by the binding of the dye to the chromatin, thus allowing for a quantification of biomass that remains adherent after a treatment in comparison with a control after a specific time. Potency is defined as the growth inhibitory concentration 50% (GI50).
# The antiproliferative effect of the pentathiepins on human cancer cell lines was analyzed by crystal violet assay based on the protocol of a previous publication. […] After dissolving in ethanol, the optical density was measured. Here, 1000 cells (250 for LCLC-103H) in 0.1 mL of medium were seeded per well of a 96 well plate and incubated at standard conditions for 24 h prior to treatment to allow for adhesion of the cells. A serial dilution of the test compounds was prepared in medium, covering final concentrations from 10.0 to 0.04 µM and 0.1 mL of the working solution added to each well in triplicate. Additionally, samples for each cell line were seeded and directly fixed after 24 h to measure the cell density at the beginning of treatment (t0). Fixation was performed by replacing medium with 0.1 mL of a solution containing 1% glutaraldehyde in Dulbecco’s buffer (0.2 g/L KCl, 0.1 g/L MgSO4·7 H2O, 1.55 g/L Na2HPO4·7 H2O, 0.2 g/L KH2HPO4, and 8 g/L NaCl in water) for 20 min. Plates were stored in 0.1 mL of Dulbecco’s buffer until further processing. After 96 h of treatment, the same fixation process was applied to the plates containing cells and test compounds. To stain the cells, 0.1 mL of an aqueous solution of crystal violet (0.02%) was added per well for 20 min, then discarded and the plates afterwards rinsed in clear water for 30 min. The dye was extracted in 50 µL of ethanol per well during 2 h of shaking. The plates were read at λ = 570 nm using a SpectraMax 384plus (Molecular Devices, Sunnyvale, CA, USA), and the proliferation of the treatment conditions was calculated in relation to a solvent control sample after subtracting the background value of the T0-plates. The GI50 (half-maximal growth inhibitory concentration) was calculated via nonlinear regression followed by interpolation of the dose–response graphs in Prism 7 (GraphPad, San Diego, CA, USA). […]
# pBR322 plasmid DNA = assay: plasmid cleavage assay; assay type: biochemical; set-up: key to DNA cleavage: no impact (0); weak impact (+); strong impact (++); conditions: for open circular DNA (single-strand breaks) / linearized plasmid (double-strand breaks): pH 7.1, 20 h, 37 °C; for DNA cleavage: summary grade
# Text: We pursued two different strategies to assess the potential of the pentathiepins to damage DNA: a simple plasmid cleavage assay and the cellular Comet assay. The former is a straightforward method to investigate whether a test compound can cleave DNA in vitro, and if so, whether single and/or double strand breaks are created, while the latter is an ex vivo assay that measures DNA fragmentation in single cells. In the plasmid cleavage assay, a single strand break would relax the supercoiled plasmid (scDNA) and lead to the detection of open circular DNA (ocDNA), whereas a double-strand break would linearize the plasmid (linDNA). An agarose gel electrophoresis enables the discrimination of the distinct plasmid conformations due to their specific electrophoretic mobilities (Figure 11a).
# This assay was used to assess the cleaving ability of the pentathiepins in a cell-free setting and on the basis of procedures described in [54]. Plasmids occur in three different conformations with distinct electrophoretic mobilities that can finally be separated visualized via agarose gel electrophoresis. For each condition, 0.3 µg of pBR322 plasmid DNA was incubated with either the pentathiepin or a corresponding amount of the solvent acetonitrile. Incubations were performed in sodium phosphate buffer (50 mM) with or without GSH for 20 h at 37 °C in a water bath. Afterwards, the samples were separated by using an agarose gel (1%) run at 80 V for 2 h. Resulting bands were stained with GelRed® (Sigma-Aldrich, Taufkirchen, Germany),) and imaged and quantified via Gel-Doc EZ Imager and Image Lab (Bio-Rad, Feldkirchen, Germany), respectively. To assess the cleavage ability of the pentathiepins, we incubated the plasmid with either 5 or 25 µM of compound at a fixed concentration of GSH (2 mM). In another experiment, the amount of GSH varied between 1 µM and 10 mM, while the pentathiepin concentration was 5 µM. In contrast to the aforementioned settings where a buffer pH of 7.1 was applied, in a third attempt, the influence of different pH on the cleavage outcome was analyzed by adjusting the buffer pH to 5.1, 6.1, or 8.1 while using fixed concentrations of both test compound and GSH. Another attempt to gain insights into the cleaving mechanism was made by adding either catalase, superoxide dismutase (100 µg/mL each), or both to 5 µM pentathiepin with 2 mM GSH.
# [2] = test system: HAP-1, HAP-1.KO.GPx1, A2780, and Siso; assay: apoptosis (summary); assay type: cell-based, human; set-up: key: no impact (0); weak impact (+); strong impact (++); conditions: summary grade
# Method: As reported in our earlier publication, a representative pentathiepin was capable of inducing apoptosis in cancer cell lines. Here, we tested compounds 1–6 for their ability to trigger this particular modality of cell death in a subset of four cell lines: HAP-1, HAP-1.KO.GPx1, A2780, and Siso. A flow cytometric assay was performed, allowing us to discriminate between viable, early, and late apoptotic cells (representative dot plots can be found in Figure S47). FITC-labeled annexin V was used to assess the externalization of phosphatidyl serine as a hallmark of early apoptosis induction. The addition of propidium iodide (PI) enabled the detection of late apoptotic cells as it only permeates porous cell membranes and exerts fluorescence once bound to double-stranded DNA.
# The annexin V-FITC/PI assay, which discriminates between viable, early, and late apoptotic cells within a sample population, was performed according to the manufacturer’s instructions (Miltenyi Biotec, Teterow, Germany). Briefly, 125,000 cells were seeded in 2 mL per well of a 6-well plate, allowed to adhere overnight, and subsequently treated with the respective pentathiepin (IC90, see Table S4) diluted in 3 mL of medium. After incubation periods of 6, 24, or 48 h, the cells were harvested, washed with the provided binding buffer, and stained with the annexin V-FITC reagent for 20 min at room temperature (RT) in the dark. After another washing step, the pellet was resuspended, and PI was added immediately before flow cytometric measurement at λEx/Em = 488/525 ± 50 nm for FITC and λEx/Em = 488/655–730 nm for PI with the MACSquant Analyzer 10 (Miltenyi Biotec, Teterow, Germany).
Compound,GI50 ([1]; Homo sapiens) [nM],Antiproliferative effect [1],"open circular DNA (single-strand breaks) (pBR322 plasmid DNA; 5 µM, 2 mM GSH)","linearized plasmid (double-strand breaks) (pBR322 plasmid DNA; 25 µM, 2 mM GSH)","open circular DNA (single-strand breaks) (pBR322 plasmid DNA; 25 µM, 2 mM GSH)",DNA cleavage (pBR322 plasmid DNA),Apoptosis [2],"influence of buffer pH on plasmid cleavage (pBR322 plasmid DNA; 5 µM, 2 mM GSH, pH 5.1 to 8.1)",GI50 [1] [nM],"fraction of damaged DNA (pBR322 plasmid DNA; 5 µM, 2 mM GSH, no enzyme added (CAT/SOD experiment))","open circular DNA (pBR322 plasmid DNA; 5 µM, 2 mM GSH, pH 5.1) [%]","open circular DNA (pBR322 plasmid DNA; 5 µM, 2 mM GSH, pH 6.1) [%]","open circular DNA (pBR322 plasmid DNA; 5 µM, 2 mM GSH, pH 8.1) [%]","amount of broken plasmid (pBR322 plasmid DNA; 5 µM, 2 mM GSH, plus 100 µg/mL CAT) [%]","amount of broken plasmid (pBR322 plasmid DNA; 5 µM, 2 mM GSH, plus 100 µg/mL SOD) [%]","amount of broken plasmid (pBR322 plasmid DNA; 5 µM, 2 mM GSH, plus CAT and SOD) [%]"
"CCOc1c2c(c3ccc(C(=O)N(CC)CC)cn13)SSSSS2 [Compound 4, 6-Ethoxy-N,N’-diethyl-[1,2,3,4,5]pentathiepino[6,7-a]indolizine-9-carboxamide]",322,++,roughly 55%,about 4%,about 75%,++,+,,,,,,,,,
"CCOc1c2c(c3cnc4[nH]c(-c5ccc(OC)cc5)cc4n13)SSSSS2 [Compound 1, 11-Ethoxy-2-(4-methoxyphenyl)-3H-[1,2,3,4,5]pentathiepino[6′,7′:3,4]pyrrolo[1,2-a]pyrrolo[2,3-e]pyrazine]",333,++,,,,+,+,a trend favoring lower pH for higher cleavage effects was observed but was not proven to be statistically significant,,,,,,,,
"CCOc1c2c(c3ccc(C(=O)N4CCCCC4)cn13)SSSSS2 [Compound 2, (6-Ethoxy-[1,2,3,4,5]pentathiepino[6,7-a]indolizin-9-yl)(piperidinyl)methanone]",493,+,,about 4%,,++,+,,,,,,,,,
"CCOc1c2c(c3ccc(C(=O)N4CCOCC4)cn13)SSSSS2 [Compound 3, (6-Ethoxy-[1,2,3,4,5]pentathiepino[6,7-a]indolizin-9-yl)(morpholino)methanone]",170,++,,about 4%,about 75%,++,++,,174,about 43%,45,49,28,19,29,19
"CCOc1c2c(c3ccc(C(=O)N4CCN(C(=O)c5ccc(F)cc5)CC4)cn13)SSSSS2 [Compound 5, (6-Ethoxy-[1,2,3,4,5]pentathiepino[6,7-a]indolizin-9-yl)(4-(4-fluorobenzoyl)piperazinyl)methanone]",267,++,roughly 55%,about 4%,about 75%,++,++,,,,,,,,,
"CCOc1c2c(c3ccc(C(=O)N4CCN(S(=O)(=O)c5ccc(C)cc5)CC4)cn13)SSSSS2 [Compound 6, (6-Ethoxy-[1,2,3,4,5]pentathiepino[6,7-a]indolizin-9-yl)(4-tosylpiperazinyl)methanone]",570,+,,,,+,+,,671,,,,,,,
